Data taken from US8232301B2, “Pesticidal compositions” (Dow AgroScience, LLC., priority 2008, dated 2012).
Where “and” joins values, the source holds several entries; their conditions need not be identical. Identical values can stand only once. Marks after values point to notes of the source that are not given here.

Test system: green peach aphid, Myzus persicae (GPA)
Test: Foliar spray test of Compound A, nonionic surfactant and AMS combinations on green peach aphid on cabbage
Format: in vivo
Conditions: for Aphid count/plant / % Control (negative values to 0) / Calculated Colby Value: Rep 1-4; for T-Test Results (synergy mark): measured vs Colby, two-sided T-test
Procedure: Materials and Methods. Solutions of nonionic surfactant (Atlox 4991 0.125% and 0.25% V/V; 1250 and 2500 ppm respectively) and ammonium sulfate (“AMS” 10,200 and 20,400 ppm) were prepared in 500 mL of water. Water used to prepare all solutions was obtained from a Milli Q water purification system. Combination mixtures were created by adding surfactant to aliquots of AMS and water solution to create all two-way combinations of surfactant and AMS. A 500 ppm stock solution of Compound A in water was prepared by adding […] of Compound A to 40 mL of water. 62.4 μL of this 500 ppm solution was added to 20 mL of each AMS, surfactant, or surfactant and AMS solution to create 1.56 ppm Compound A high rate solutions. These high rate solutions of Compound A and surfactant, Compound A and AMS, or Compound A, AMS, and surfactant, were serially diluted in two-fold increments with the appropriate surfactant, AMS, or AMS and surfactant combination solutions, to create a dilution series from 1.56 to 0.19 ppm. A dilution series of Compound A in water with no surfactant or AMS was also prepared. All solutions of surfactant, AMS, or surfactant and AMS, were tested without Compound A. Two-to-three-leaf stage cabbage plants were infested on day 1 with green peach aphid, Myzus persicae (GPA), by transferring aphid infested foliage to each plant. A uniform number of aphids were transferred based on visual inspection of the infested foliage. Plants were sprayed on all surfaces to wet using a hand held aspirator type sprayer on day 2. Four replicates of each treatment combination were sprayed and all stages of live aphids on each plant were counted on day 4. Data were converted to percent control based on the number of aphids in the unsprayed check treatment. Counts of aphids on unsprayed check plants were used to calculate control for surfactant and AMS solutions. Additionally, the average aphid count on the unsprayed check treatment was used to calculate percent control values for plants sprayed with only Compound A. Aphid counts from plants treated with combinations of Compound A and AMS, surfactant, or AMS and surfactant, were converted to percent control by using the average aphid count from the unsprayed check treatment. Negative percent control values were changed to zero percent control values before assessing treatment combinations for synergy. […] Measured efficacy (percent Control) data were compared to calculated Colby values (Colby, S. R. 1967. Calculating Synergistic and Antagonistic Responses of Herbicide Combinations. Weeds 15:20-22) using a two-sided T-test (Minitab).

[1] = A 0.19 ppm + NS 1250 ppm + AMS 10,200 ppm
[2] = A 0.19 ppm + NS 1250 ppm + AMS 20,400 ppm
[3] = A 0.19 ppm + NS 2500 ppm + AMS 10,200 ppm
[4] = A 0.19 ppm + NS 2500 ppm + AMS 20,400 ppm
[5] = treatment #12: A 0.19 ppm + AMS 20,400 ppm
[6] = treatment #14: A 0.19 ppm + NS 1250 ppm + AMS 20,400 ppm
[7] = treatment #15: A 0.19 ppm + NS 2500 ppm + AMS 20,400 ppm
[8] = treatment #16: A 0.19 ppm + NS 1250 ppm + AMS 10,200 ppm

## N.N.O=S(=O)(O)O [AMS, ammonium sulfate]
Treatment #4: AMS 20,400 ppm alone
  Aphid count/plant: 35 and 36 and 38 and 31
Treatment #5: AMS 10,200 ppm alone
  % Control (negative values to 0): 0.0%

## CC(c1ccc(C(F)(F)F)nc1)S(C)(=O)=NC#N (stereo not drawn) [Compound A]
A 0.19 ppm + AMS 10,200 ppm
  % Control Colby Calculated, Mean: 43%
  % Control Measured, Mean: 32%
A 0.19 ppm + AMS 20,400 ppm
  % Control Colby Calculated, Mean: 55.58%
  % Control Measured, Mean: 38.3%
A 0.19 ppm + NS 1250 ppm
  % Control Colby Calculated, Mean: 58.28%
  % Control Measured, Mean: 76.4%
[1]
  % Control Colby Calculated, Mean: 58.28%
  % Control Measured, Mean: 93.28%
  T-Test Results (synergy mark): T = 6.60 P = 0.0027***
[2]
  % Control Colby Calculated, Mean: 60.1%
  % Control Measured, Mean: 91.1%
  T-Test Results (synergy mark): T = 3.26 P = 0.022***
A 0.19 ppm + NS 2500 ppm
  % Control Colby Calculated, Mean: 57%
  % Control Measured, Mean: 63.7%
[3]
  % Control Colby Calculated, Mean: 57%
  % Control Measured, Mean: 80%
[4]
  % Control Colby Calculated, Mean: 63.3%
  % Control Measured, Mean: 96.33%
  T-Test Results (synergy mark): T = 3.68 P = 0.035***
A 0.19 ppm combined with AMS and surfactant, three of 4 possible mixtures statistically supported
  synergy: significant synergy
A 0.19 ppm combined with surfactant or AMS (two-way mixtures), 0.05% level
  synergy: no instances where synergy could be supported
A at concentrations of 1.56, 0.78 and 0.39, not combined with surfactant or AMS
  efficacy: great enough that identifying synergy was not practical
Treatment #10: A 0.19 ppm + NS 1250 ppm
  % Control (negative values to 0): 85.4% and 98.1% and 64.3% and 57.9%
Treatment #10: A 0.19 ppm + NS 1250 ppm, predicted % control
  Calculated Colby Value: 53.6% and 63.2% and 60.2% and 56.1%
[5]
  Aphid count/plant: 19 and 24 and 20
  Calculated Colby Value: 56.5% and 64.4% and 43.9% and 57.5%
Treatment #13: A 0.19 ppm + AMS 10,200 ppm
  Aphid count/plant: 23 and 30 and 28 and 17
[6]
  % Control (negative values to 0): 97.9% and 98.1% and 100.0% and 68.4%
  Calculated Colby Value: 53.6% and 63.2% and 48.7% and 74.8%
[7]
  % Control (negative values to 0): 95.8% and 100.0% and 89.5%
  Calculated Colby Value: 60.2% and 63.2% and 43.9% and 85.8%
[8]
  % Control (negative values to 0): 97.9% and 96.3% and 100.0% and 78.9%
  Calculated Colby Value: 53.6% and 63.2% and 60.2% and 56.1%
Treatment #17: A 0.19 ppm + NS 2500 ppm + AMS 10,200 ppm
  % Control (negative values to 0): 72.9% and 98.1% and 85.7% and 63.2%
